Target: AICARFT (Homo sapiens, UniProt P31939)
Test: MS detection of ZMP in low folate media cultured NCI-H460 cells
Format: cell-based
Set-up: endogenous in cells; host or cells: NCI-H460
Details: for IC50: Mean ± SEM, ZMP concentration by LC-MS, NCI-H460 cells in low folate media, 16 hours; for AICARFT inhibition in low folate media assay (in words): low levels of folate in the media, summary of Table 16
Experimental: Grow NCI-H460 cells in complete high folate RPMI media (ATCC #30-2001) until cellular confluence reaches ˜80%. Wash cells with PBS, trypsinize, resuspend cells in complete low folate RPMI media (Gibco #27016-021) and perform a cell count. Transfer 1.25×10^6 cells to a T225 flask containing complete low folate RPMI media (40 mL). Grow for seven days. Split cells again with complete low folate media if confluence surpasses 80%. Wash cells with PBS, trypsinize, resuspend cells in complete low folate RPMI media, and perform a cell count. Aliquot 10×10^6 cells in complete low folate media (1 mL)+5% DMSO per cryovial. Use a cell freezing apparatus to freeze cells in a slow and controlled manner in a −80° C. freezer. The next day, transfer cells to liquid nitrogen for long term storage. Thaw frozen cells from cryovial in 37° C. water bath, wash cells once with low folate assay medium: folate free RPMI 1640 medium (Gibco, #27016-021), Glucose (Sigma, #G5767), Hepes (Hyclone, #SH30237.01), Na Pyruvate (Hyclone, #Sh30239.01), 10% FBS (Hyclone, #SH30070.03). Adjust cells concentration to 250,000 cells/mL with medium, plate cells by adding 100 μl/well (25,000 cells/well) into Biocoat poly-D-lysine 96-well plate (BD, #35-4640), and incubate at 37° C. overnight with 5% CO2. Treat cells with 20 μl/well compound diluted in media containing 3% DMSO. Incubate at 37° C. for 16 hours with 5% CO2, then remove the medium and add 1× SureFire Lysis Buffer (50 μL) (PerkinElem, SureFire® Kit component) to each well and incubate at room temperature for 10 min with gentle shaking.
Cells grown in a 96-well plate have the media removed and are lysed in AlphaScreen® SureFire® lysis buffer. Standard curves containing ZMP, dUMP and AICAr at concentrations of 5-10,000 ng/mL are prepared in 40 mM ammonium acetate, pH 4. Aliquots (40 μL) of each standard or sample are combined in a deep 96-well plate with 160 μL of internal standard solution containing ^13C5-ZMP (custom synthesis) and ^13C5-AICAr (custom synthesis) at 100 ng/mL in 40 mM ammonium acetate, pH 4. A Beckman Biomek FX liquid handler is used to add 400 μL of DCM to each sample. Samples are sealed, vortexed for 5 minutes, and placed in the refrigerator for at least 30 minutes. The samples are centrifuged for 10 minutes at 4,000 rpm and 4° C. using an Eppendorf 5810R centrifuge, and the Biomek liquid handler is used to transfer 75 μL of the aqueous layer into a clean 96-well plate. The plates are sealed prior to analysis.
The LC-MS method utilizes a Shimadzu Prominence 20A HPLC system connected to an AB Sciex 5500™ or an AB Sciex 6500™ triple quadrupole mass spectrometer running Analyst® 2.1 software. Extracted samples are separated using a Thermo Hypercarb™ Javelin guard column (2.1×20 mm, […]) with an injection volume of 15 μL and a flow rate of 1 mL/minute. Mobile phase A is a 95:5 mixture of 50 mM ammonium formate, pH 4 and ACN. Mobile phase B is a 70:30 mixture of ACN and MeOH spiked with 0.3% formic acid and 2% concentrated ammonium hydroxide solution (v/v). The gradient is as follows: 0 minutes, 0% B; 0.25 minutes, 0% B; 2.00 minutes, 30% B; 2.01 minutes, 95% B; 3.50 minutes, 95% B, 3.51 minutes, 0% B, 5.00 minutes, stop.
The mass spectrometer is operated in positive ion TurboIonSpray® multiple reaction monitoring mode with a source temperature of 700° C. The precursor and fragment ions for each analyte are: ZMP (339→110), ^13C5-ZMP (344→110), dUMP (309→81), AICAr (259→127) and ^13C5-AICAr (264→127). Calibration curves are constructed by plotting analyte concentrations vs. analyte/internal standard peak area ratios and performing a linear fit of the data using a 1/concentration weighting with AB Sciex MultiQuant™ 2.1 software. Back-calculated ZMP concentrations are fit to a four-parameter logistic equation using ACTIVITYBASE 4.0 to determine IC50 values.

Sequence of AICARFT (P31939 whole entry): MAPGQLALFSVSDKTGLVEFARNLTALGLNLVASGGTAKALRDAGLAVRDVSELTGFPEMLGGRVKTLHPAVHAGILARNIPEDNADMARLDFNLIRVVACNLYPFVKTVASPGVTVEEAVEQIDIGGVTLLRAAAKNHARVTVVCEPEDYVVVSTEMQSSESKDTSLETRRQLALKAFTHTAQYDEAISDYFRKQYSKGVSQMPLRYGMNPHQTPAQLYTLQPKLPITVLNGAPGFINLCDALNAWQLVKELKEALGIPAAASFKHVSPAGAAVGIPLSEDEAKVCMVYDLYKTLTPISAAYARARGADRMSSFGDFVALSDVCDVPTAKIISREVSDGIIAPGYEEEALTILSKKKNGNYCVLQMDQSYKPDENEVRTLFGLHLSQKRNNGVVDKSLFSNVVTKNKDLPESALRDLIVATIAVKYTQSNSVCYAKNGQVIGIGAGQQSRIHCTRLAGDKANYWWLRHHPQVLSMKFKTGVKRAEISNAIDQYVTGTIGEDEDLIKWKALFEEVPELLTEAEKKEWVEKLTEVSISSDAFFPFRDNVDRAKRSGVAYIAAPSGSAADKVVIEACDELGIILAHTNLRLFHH

SMILES | IC50 [µM] | AICARFT inhibition in low folate media assay (in words)
O=c1[nH]ccc2cc(F)c(NS(=O)(=O)c3ccc(N4C[C@@H](O)[C@@H](F)C4)s3)cc12 (single isomer, unassigned) [Example 33] | 0.00793 | still inhibit AICARFT
O=c1[nH]ccc2cc(F)c(NS(=O)(=O)c3ccc(N4CC[C@@H](O)C4)s3)cc12 [Example 1, N-(6-Fluoro-1-oxo-1,2-dihydroisoquinolin-7-yl)-5-[(3R)-3-hydroxypyrrolidin-1-yl]thiophene-2-sulfonamide] | – | still inhibit AICARFT
O=c1[nH]ccc2cc(F)c(NS(=O)(=O)c3ccc(N4C[C@@H](O)C(F)(F)C4)s3)cc12 [Example 41, 5-[(4R)-3,3-difluoro-4-hydroxypyrrolidin-1-yl]-N-(6-fluoro-1-oxo-1,2-dihydroisoquinolin-7-yl)thiophene-2-sulfonamide] | 0.0422 | still inhibit AICARFT

Further lines, results first:

IC50 [µM] | AICARFT inhibition in low folate media assay (in words) | SMILES
0.0396 | still inhibit AICARFT | O=c1[nH]ccc2cc(F)c(NS(=O)(=O)c3ccc([C@@H]4CC[C@@H](O)C4)s3)cc12 (single isomer, unassigned) [Example 46]
0.0101 | still inhibit AICARFT | CCC1(C)CC(c2ccc(S(=O)(=O)Nc3cc4c(=O)[nH]ccc4cc3F)s2)=CNC1=O (single isomer, unassigned; isomer 1) [Example 84, 5-(5-Ethyl-5-methyl-6-oxo-1,4,5,6-tetrahydropyridin-3-yl)-N-(6-fluoro-1-oxo-1,2-dihydroisoquinolin-7-yl)thiophe2ne-2-sulfonamide, Isomer 1]
0.0102 | still inhibit AICARFT | CC1(C)CC(c2ccc(S(=O)(=O)Nc3cc4c(=O)[nH]ccc4cc3F)s2)=CNC1=O [Example 81, 5-(5,5-Dimethyl-6-oxo-1,4,5,6-tetrahydropyridin-3-yl)-N-(6-fluoro-1-oxo-1,2-dihydroisoquinolin-7-yl)thiophene-2-sulfonamide]

— patent US9776992B2, “1-oxo-1,2-dihydroisoquinolin-7-yl-(5-substituted-thiophen-2-yl)-sulfonamide compounds, formulations containing those compounds, and their use as AICARFT inhibitors in the treatment of cancers” (Eli Lilly and Company, priority 2014, dated 2017)
